Results from PubChem BioAssay (NCI).
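Dose response: 5 concentrations. Exposure: 48 h. Format: 96-well plates. Endpoint: linear interpolation; highest concentration if not reached. TGI marks complete inhibition of growth.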

Legend:
Assay in all cases: NCI tumour cell line growth inhibition, 48 h
[1] = system: 786-0 renal
[2] = system: A549 NSCLC
[3] = system: ACHN renal
[4] = system: CAKI-1 renal
[5] = system: CCRF-CEM leukemia
[6] = system: COLO 205 colon
[7] = system: DLD-1 colon
[8] = system: DMS 114 small cell lung
[9] = system: DMS 273 small cell lung
[10] = system: EKVX NSCLC
[11] = system: HCC-2998 colon
[12] = system: HCT-116 colon
[13] = system: HCT-15 colon
[14] = system: HL-60(TB) leukemia
[15] = system: HOP-18 NSCLC
[16] = system: HOP-62 NSCLC
[17] = system: HT29 colon
[18] = system: IGROV1 ovarian
[19] = system: K-562 leukemia
[20] = system: KM12 colon
[21] = system: KM20L2 colon
[22] = system: LOX IMVI melanoma
[23] = system: LXFL 529 NSCLC
[24] = system: M14 melanoma
[25] = system: M19-MEL melanoma
[26] = system: MALME-3M melanoma
[27] = system: MOLT-4 leukemia
[28] = system: NCI-H226 lung
[29] = system: NCI-H23 lung
[30] = system: NCI-H460 lung
[31] = system: NCI-H522 lung
[32] = system: OVCAR-3 ovarian
[33] = system: OVCAR-4 ovarian
[34] = system: OVCAR-5 ovarian
[35] = system: OVCAR-8 ovarian
[36] = system: RXF 393 renal
[37] = system: RXF-631 renal
[38] = system: SF-268 CNS
[39] = system: SF-295 CNS
[40] = system: SF-539 CNS
[41] = system: SK-MEL-2 melanoma
[42] = system: SK-MEL-28 melanoma
[43] = system: SK-OV-3 ovarian
[44] = system: SN12C renal
[45] = system: SNB-19 CNS
[46] = system: SNB-75 CNS
[47] = system: SNB-78 CNS
[48] = system: SR leukemia
[49] = system: SW-620 colon
[50] = system: TK-10 renal
[51] = system: U251 CNS
[52] = system: UACC-257 melanoma
[53] = system: UACC-62 melanoma
[54] = system: UO-31 renal
[55] = system: XF 498 CNS
[56] = system: A498 renal
[57] = system: HOP-92 NSCLC
[58] = system: RPMI-8226 leukemia
[59] = system: SK-MEL-5 melanoma

Measured: TGI

Cc1ccc(Nc2nc(C)c(C(/C=C/c3ccc4c(c3)OCO4)=N/Nc3ccc([N+](=O)[O-])cc3[N+](=O)[O-])s2)c([N+](=O)[O-])c1
95 µM: [14]
90.1 µM: [28]
17.8 µM: [53]
37.4 µM: [31]
56.2 µM: [55]
63.7 µM: [15]
not listed: [56] | [57] | [58] | [59]
> 100 µM: all other assays above

O=C1NN=C(c2ccc([N+](=O)[O-])cc2)C1n1nc(-c2ccccc2)c2ccccc2c1=O (centres undefined)
> 68.5 µM: [13]
> 78.7 µM: [7]
> 68.3 µM: [9]
> 70 µM: [58]
> 64.4 µM: [14]
not listed: [8]
> 100 µM: all other assays above

COC1(Cc2ccccc2)C(=O)c2ccccc2N1C(C)=O (centres undefined)
not listed: [22] | [26] | [28] | [31] | [34] | [38] | [50] | [59]
> 100 µM: all other assays above
